How the values were obtained:
[1] = DPPH radical scavenging activity; settings: samples at 100 μg/mL; 30 min at 30 °C; mean ± SE, n=3
Protocol: The ability of the extracts to scavenge free radicals was determined according to the method of Hosny, et al 2002 [24]. In a 96-well plate, 10 μL of each sample or standard dissolved in ethanol (100 μg/mL) was added to 190 μL of 316 μM/mL DPPH solution. A blank was prepared using ethanol. After incubation at 30 °C for 30 min, the absorbance of each solution was measured at 517 nm. DL-α-tocopherol and BHT were used as positive controls. […] All experiments were carried out in triplicate.

[2] = system: FeSO4/H2O2-stimulated lipid peroxidation (MDA production) in rat tissue homogenates; experiment: FeSO4/H2O2-stimulated lipid peroxidation (MDA production, TBARS) in rat tissue homogenates; assay type: biochemical; settings: 200 μg/mL, mean ± SE, n=3; for Inhibition (%) Brain: rat brain homogenate; for Inhibition (%) Heart: rat heart homogenate; for Inhibition (%) Liver: rat liver homogenate
Protocol: During aerobic incubation of the tissue homogenates, MDA released reacts with thiobarbituric acid (TBA) to give a pink colour. The capability of the samples to inhibit MDA formation is used as a measure of their antioxidant activity. […] The results were expressed as nanomoles of MDA equivalents per milligram of protein of rat (brain, heart and liver) homogenates. All measurements were done in triplicate. The capability to inhibit MDA formation was calculated using the following equation: Inhibition effects (%)=1-MDA in tissue homogenate with test extracts/MDA in tissue homogenate without test extracts×100

Compound	DPPH % inhibition [1] [%]	Inhibition (%) Brain [2] [%]	Inhibition (%) Heart [2] [%]	Inhibition (%) Liver [2] [%]
Cc1c(C)c2c(c(C)c1O)CC[C@@](C)(CCC[C@H](C)CCC[C@H](C)CCCC(C)C)O2 (racemic) [DL-α-tocopherol]	66.5 ± 2.75	62.90 ± 2.18	58.70 ± 1.80	71.10 ± 2.25
Cc1cc(C(C)(C)C)c(O)c(C(C)(C)C)c1 [BHT, butylated hydroxytoluene]	55.3 ± 1.50	52.48 ± 1.72	43.23 ± 1.65	53.20 ± 1.65

Source: article PMC3221499, “A New Flavonoid C-Glycoside from Celtis australis L. and Celtis occidentalis L. Leaves and Potential Antioxidant and Cytotoxic Activities” (Scientia Pharmaceutica, 2011)
